# Data reported in US9695155B2, “Herbicidal substituted pyrimidinyloxy benzene compounds” (E. I. DU PONT DE NEMOURS AND COMPANY, priority 2013, dated 2017).
# Tests used:
# corn [1] = test: Test A preemergence; assay type: in vivo, Zea mays; settings: for Corn plant response rating: 500 g ai/ha
# Method in brief: (§1)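 Scoring: eye-based comparison with untreated controls, 0 for no effect through 100 for complete control, at about day 10. Treatments: directed soil spray preemergence; foliar spray postemergence on 2–10 cm plants at the one- to two-leaf stage. Medium: loam soil with sand.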
# barnyardgrass [2] = test: Test A postemergence; assay type: in vivo, Echinochloa crus-galli; settings: 0 to 100 scale where 0 is no effect and 100 is complete control; for Barnyardgrass plant response rating: 125 g ai/ha; for Plant response rating, Barnyardgrass: 500 g ai/ha
# Method in brief: as §1
# corn [3] = test: Test A postemergence; assay type: in vivo, Zea mays; settings: 0 to 100 scale where 0 is no effect and 100 is complete control; for Corn plant response rating: 125 g ai/ha; for Plant response rating, Corn: 500 g ai/ha
# Method in brief: as §1
# wheat, winter = test: Test C postemergence; assay type: in vivo, Triticum aestivum; settings: for Plant response rating (0 to 100), Wheat: 16 g ai/ha, 0 is no effect, 100 is complete control; for Wheat plant response rating: 31 g ai/ha; for Wheat plant response rating / Plant response rating, Wheat: scale 0 to 100 (0 no effect, 100 complete control)
# Method in brief: (§2)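 Plants were kept under greenhouse conditions for 13–15 days following spray. Pre-emergent application went to soil (loam–sand), post-emergent to foliage at 1–4 leaves. Evaluation: visual, percent control against untreated checks.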
# galium = test: Test C postemergence; assay type: in vivo, Galium aparine; settings: for Plant response rating (0 to 100), Galium: 16 g ai/ha, 0 is no effect, 100 is complete control; for Galium plant response rating: 31 g ai/ha; for Galium plant response rating / Plant response rating, Galium: scale 0 to 100 (0 no effect, 100 complete control)
# Method in brief: as §2
# yellow nutsedge = test: Test C postemergence; assay type: in vivo, Cyperus esculentus; settings: for Plant response rating (0 to 100), Nutsedge, Yellow: 16 g ai/ha, 0 is no effect, 100 is complete control; for Nutsedge, Yellow plant response rating: 31 g ai/ha; for Nutsedge, Yellow plant response rating / Plant response rating, Nutsedge, Yellow: scale 0 to 100 (0 no effect, 100 complete control)
# Method in brief: as §2
# ragweed = test: Test C postemergence; assay type: in vivo, Ambrosia elatior; settings: for Plant response rating (0 to 100), Ragweed: 16 g ai/ha, 0 is no effect, 100 is complete control; for Ragweed plant response rating: 31 g ai/ha; for Ragweed plant response rating / Plant response rating, Ragweed: scale 0 to 100 (0 no effect, 100 complete control)
# Method in brief: as §2
# barnyardgrass [4] = test: Test C postemergence; assay type: in vivo, Echinochloa crus-galli; settings: for Plant response rating (0 to 100), Barnyardgrass: 16 g ai/ha, 0 is no effect, 100 is complete control; for Barnyardgrass plant response rating: 31 g ai/ha, 13 to 15 days; for Barnyardgrass plant response rating / Plant response rating, Barnyardgrass: scale 0 to 100 (0 no effect, 100 complete control)
# Method in brief: as §2
# waterhemp = test: Test C postemergence; assay type: in vivo, Amaranthus rudis; settings: for Plant response rating (0 to 100), Waterhemp: 16 g ai/ha, 0 is no effect, 100 is complete control; for Waterhemp plant response rating: 31 g ai/ha; for Waterhemp plant response rating / Plant response rating, Waterhemp: scale 0 to 100 (0 no effect, 100 complete control)
# Method in brief: as §2
# wild oat = test: Test C postemergence; assay type: in vivo, Avena fatua; settings: for Plant response rating (0 to 100), Oat, Wild: 16 g ai/ha, 0 is no effect, 100 is complete control; for Oat, Wild plant response rating: 31 g ai/ha; for Oat, Wild plant response rating / Plant response rating, Oat, Wild: scale 0 to 100 (0 no effect, 100 complete control)
# Method in brief: as §2
# [5] = 0 to 100 scale where 0 is no effect and 100 is complete control
# [6] = postemergence, visual rating, 13 to 15 days
# [7] = 125 g ai/ha, postemergence, visual rating
# [8] = Postemergence, 62 g ai/ha, 13 to 15 days
smiles,measurement,setting,value
Fc1cccc(Oc2ncc(Cl)cn2)c1-n1cc(Cl)cn1 [Compound 177],"Plant response rating, Corn","corn [1]; 125 g ai/ha, 0 to 100 scale where 0 is no effect and 100 is complete control",0
same,Corn plant response rating,corn [1]; [5],50
same,Barnyardgrass plant response rating,barnyardgrass [2],40
same,"Plant response rating, Barnyardgrass",barnyardgrass [2],100
same,Corn plant response rating,corn [3],40
same,"Plant response rating, Corn",corn [3],70
same,"Plant response rating (0 to 100), Wheat","wheat, winter; postemergence",0
same,Wheat plant response rating,"wheat, winter; [6]",0
same,"Plant response rating, Wheat","wheat, winter; [7]",5
same,"Plant response rating, Wheat","wheat, winter; Postemergence, 62 g ai/ha",0
same,"Plant response rating (0 to 100), Galium",galium; postemergence,60
same,Galium plant response rating,galium; [6],50
same,"Plant response rating, Galium",galium; [7],98
same,"Plant response rating, Galium","galium; Postemergence, 62 g ai/ha",85
same,"Plant response rating (0 to 100), Nutsedge, Yellow",yellow nutsedge; postemergence,0
same,"Nutsedge, Yellow plant response rating",yellow nutsedge; [6],5
same,"Plant response rating, Nutsedge, Yellow",yellow nutsedge; [7],10
same,"Plant response rating, Nutsedge, Yellow","yellow nutsedge; Postemergence, 62 g ai/ha",5
same,"Plant response rating (0 to 100), Ragweed",ragweed; postemergence,10
same,Ragweed plant response rating,ragweed; [6],15
same,"Plant response rating, Ragweed",ragweed; [7],60
same,"Plant response rating, Ragweed","ragweed; Postemergence, 62 g ai/ha",55
same,"Plant response rating (0 to 100), Barnyardgrass",barnyardgrass [4]; postemergence,5
same,Barnyardgrass plant response rating,"barnyardgrass [4]; postemergence, visual rating",5
same,"Plant response rating, Barnyardgrass",barnyardgrass [4]; [7],10
same,"Plant response rating, Barnyardgrass","barnyardgrass [4]; Postemergence, 62 g ai/ha",10
same,"Plant response rating (0 to 100), Waterhemp",waterhemp; postemergence,70
same,Waterhemp plant response rating,waterhemp; [6],75
same,"Plant response rating, Waterhemp",waterhemp; [7],100
same,"Plant response rating, Waterhemp","waterhemp; Postemergence, 62 g ai/ha",95
same,"Plant response rating (0 to 100), Oat, Wild",wild oat; postemergence,5
same,"Oat, Wild plant response rating",wild oat; [6],0
same,"Plant response rating, Oat, Wild",wild oat; [7],30
same,"Plant response rating, Oat, Wild","wild oat; Postemergence, 62 g ai/ha",10
Fc1cnc(Oc2ccccc2-n2cc(C(F)F)cn2)nc1 [Compound 228],Corn plant response rating (0 to 100 scale),corn [1]; 125 g ai/ha,0
same,Corn plant response rating,corn [1]; [5],40
same,Barnyardgrass plant response rating,barnyardgrass [2],10
same,"Plant response rating, Barnyardgrass",barnyardgrass [2],90
same,Corn plant response rating,corn [3],50
same,"Plant response rating, Corn",corn [3],10
same,"Plant response rating (0 to 100), Wheat","wheat, winter; postemergence",0
same,Wheat plant response rating,"wheat, winter; [6]",0
same,"Plant response rating, Wheat","wheat, winter; [7]",0
same,"Plant response rating, Wheat","wheat, winter; [8]",0
same,"Plant response rating (0 to 100), Galium",galium; postemergence,50
same,Galium plant response rating,galium; [6],50
same,"Plant response rating, Galium",galium; [7],80
same,"Plant response rating, Galium",galium; [8],70
same,"Plant response rating (0 to 100), Nutsedge, Yellow",yellow nutsedge; postemergence,0
same,"Nutsedge, Yellow plant response rating",yellow nutsedge; [6],0
same,"Plant response rating, Nutsedge, Yellow",yellow nutsedge; [7],5
same,"Plant response rating, Nutsedge, Yellow",yellow nutsedge; [8],5
same,"Plant response rating (0 to 100), Ragweed",ragweed; postemergence,5
same,Ragweed plant response rating,ragweed; [6],20
same,"Plant response rating, Ragweed",ragweed; [7],45
same,"Plant response rating, Ragweed",ragweed; [8],55
same,"Plant response rating (0 to 100), Barnyardgrass",barnyardgrass [4]; postemergence,0
same,Barnyardgrass plant response rating,"barnyardgrass [4]; postemergence, visual rating",0
same,"Plant response rating, Barnyardgrass",barnyardgrass [4]; [7],5
same,"Plant response rating, Barnyardgrass","barnyardgrass [4]; Postemergence, 62 g ai/ha",5
same,"Plant response rating (0 to 100), Waterhemp",waterhemp; postemergence,15
same,Waterhemp plant response rating,waterhemp; [6],45
same,"Plant response rating, Waterhemp",waterhemp; [7],75
same,"Plant response rating, Waterhemp",waterhemp; [8],60
same,"Plant response rating (0 to 100), Oat, Wild",wild oat; postemergence,0
same,"Oat, Wild plant response rating",wild oat; [6],0
same,"Plant response rating, Oat, Wild",wild oat; [7],5
same,"Plant response rating, Oat, Wild",wild oat; [8],0
